Source: patent US20260297037A1, “COMPOUND COMPRISING N-METHYLPIPERAZINE ETHANOL CARBAMATE STRUCTURE AND USE THEREOF” (KOREA INSTITUTE OF RADIOLOGICAL & MEDICAL SCIENCES, priority 2023, published 2026)

Key:
Assay type in all cases: in vivo, C57BL/6 mice
[1] = system: radiation-induced pulmonary fibrosis (RIPF); assay: Degree of inflammation and fibrosis, H&E and Masson's Trichrome staining, radiation-induced pulmonary fibrosis; settings: SBRT 90 Gy, nintedanib 60 mg/kg, oral, 2 weeks after radiation exposure, vs untreated
Experimental: (§1) One hour before stereotactic body radiation therapy (SBRT; 90 Gy, 4 mm collimator), DCTP and nintedanib, an FDA-approved drug known to inhibit pulmonary fibrosis, were orally administered to seven-week-old male C57BL/6 mice. The degree of pulmonary fibrosis and the inhibitory effect on radiation-induced lung injury were observed two weeks after radiation exposure.
(§2) The DCTP drug was administered at a dose of 30 mg/kg, and nintedanib was administered once daily (o.d.) at a dose of 60 mg/kg.
In addition, to analyze the degree of inflammatory response and the degree of fibrosis two weeks after radiation exposure, H&E staining and Masson's Trichrome staining were performed, and the results are shown in FIG. 5.
as §1, with “prior to” for “before”, “PXDP” for “DCTP”
(§3) The PXDP drug was administered at a dose of 100 mg/kg, and nintedanib was administered once daily (o.d.) at a dose of 60 mg/kg. To analyze the degree of inflammatory response and the degree of fibrosis 2 weeks after radiation exposure, H&E staining and Masson's Trichrome staining were performed, and the results are shown in FIG. 11.

[2] = system: idiopathic pulmonary fibrosis induced by bleomycin; assay: Inhibitory effect on idiopathic pulmonary fibrosis induced by bleomycin, Micro-CT imaging; settings: bleomycin 1.5 U/kg, nintedanib 60 mg/kg, oral once daily for two weeks from day 14, 4 weeks after bleomycin, vs untreated
Experimental: (§4) Each drug was administered starting 14 days after the administration of bleomycin. The drug was orally administered at a dose of 20 mg/kg once daily for two weeks (a total of 13 administrations). The control drug, nintedanib, was administered at a dose of 60 mg/kg, and the co-administration group was orally administered nintedanib (60 mg/kg) together with DCTP (20 mg/kg) once daily for two weeks (a total of 13 administrations).
(§5) Each drug was administered starting 14 days after the administration of bleomycin. Nintedanib and PXDP were each orally administered at a dose of 60 mg/kg once daily for two weeks (a total of 13 administrations), and the group treated with the combination was orally administered nintedanib (60 mg/kg) together with PXDP (60 mg/kg) once daily for two weeks (a total of 13 administrations).

[3] = system: radiation-induced pulmonary fibrosis (RIPF); assay: Inhibitory effect on radiation-induced pulmonary fibrosis, Micro-CT imaging; settings: SBRT 90 Gy, 2 weeks after radiation exposure; for degree of fibrosis by Micro-CT imaging: vs untreated
Experimental: as §1, §2
as §1, with “prior to” for “before”, “PXDP” for “DCTP”
as §3

[4] = system: idiopathic pulmonary fibrosis induced by bleomycin; assay: Degree of inflammation and fibrosis, H&E and Masson's Trichrome staining, bleomycin-induced idiopathic pulmonary fibrosis; settings: bleomycin 1.5 U/kg, nintedanib 60 mg/kg, oral once daily for two weeks from day 14, vs untreated
Experimental: as §4
The results of H&E and Masson's Trichrome staining performed to evaluate the degree of inflammation and fibrosis are shown in FIG. 3.
as §5
The results of H&E and Masson's Trichrome staining performed to evaluate the degree of inflammation and fibrosis are shown in FIG. 8.

[5] = Example 3, FIG. 5, DCTP 30 mg/kg
[6] = Example 5, FIG. 7, PXDP 60 mg/kg
[7] = Example 6, FIG. 10, PXDP 100 mg/kg, nintedanib 60 mg/kg, oral
[8] = Example 6, FIG. 11, PXDP 100 mg/kg
[9] = Example 5, FIG. 8, PXDP 60 mg/kg

Compound	degree of inflammation and fibrosis by H&E and Masson's Trichrome staining [1, 5]	degree of fibrosis by Micro-CT imaging [2, 6]	effect compared with nintedanib (Micro-CT imaging) ([3]; Example 6, FIG. 10, PXDP 100 mg/kg vs nintedanib 60 mg/kg, oral)	degree of fibrosis by Micro-CT imaging [3, 7]	degree of inflammation and fibrosis by H&E and Masson's Trichrome staining [1, 8]	degree of inflammation and fibrosis by H&E and Masson's Trichrome staining [4, 9]	degree of fibrosis by Micro-CT imaging ([2]; Example 2, FIG. 2, DCTP 20 mg/kg)	degree of fibrosis by Micro-CT imaging ([3]; Example 3, FIG. 4, nintedanib 60 mg/kg oral once daily)	degree of inflammation and fibrosis by H&E and Masson's Trichrome staining ([4]; Example 2, FIG. 3, DCTP 20 mg/kg)
COc1cc2ncnc(N(C(=O)OCCN3CCN(C)CC3)c3ccc(F)c(Cl)c3)c2cc1NC(=O)/C=C/CN1CCCCC1 [DCTP, 2-(4-methylpiperazin-1-yl)ethyl (E)-(3-chloro-4-fluorophenyl) (7-methoxy-6-(4-(piperidin-1-yl)but-2-enamido)quinazolin-4-yl) carbamate]	reduction in fibrosis and inflammation in the lungs	–	–	–	–	–	–	–	–
CN1CCN(CCOC(=O)N(Cc2ccc(C(F)(F)F)nc2)c2ccc(Cc3c[nH]c4ncc(Cl)cc34)cn2)CC1 [PXDP, 2-(4-methylpiperazin-1-yl)ethyl (5-((5-chloro-1H-pyrrolo[2,3-b]pyridin-3-yl)methyl)pyridin-2-yl)((6-(trifluoromethyl)pyridin-3-yl)methyl) carbamate]	–	reduction in the degree of fibrosis	superior to that of nintedanib	reduction in the degree of fibrosis	alleviation of fibrosis and inflammation in the lungs	alleviation of pulmonary fibrosis and inflammation	–	–	–
COC(=O)c1ccc2c(c1)NC(=O)/C2=C(\Nc1ccc(N(C)C(=O)CN2CCN(C)CC2)cc1)c1ccccc1 [nintedanib]	reduction in fibrosis and inflammation in the lungs	reduction in the degree of fibrosis	–	reduction in the degree of fibrosis	alleviation of fibrosis and inflammation in the lungs	alleviation of pulmonary fibrosis and inflammation	reduction in the degree of fibrosis	reduction in the degree of fibrosis	alleviation of pulmonary fibrosis and inflammation
